This is an account of results in publication PMC7894522, “Structure Based Design of Bicyclic Peptide Inhibitors of RbAp48” (Angewandte Chemie (International Ed. in English), 2020).

Starred links: 1 amine or outer side, 2 acyl side, 3 side chain; linkers in the order of their positions; H or OH if unused. Positions of bridges follow the written chain, without caps; N, C: chain ends. Residues, ends and D or L forms follow the SMILES beside them. TBMB = c1c(C[*:1])cc(C[*:3])cc1C[*:2]

Data set [1] in a line: Peptide stability in MDA-MB-231 whole cell lysate. The data set is classed as in vitro ADME. Conditions: human, 37°C, HPLC, duplicate. As to the method: To investigate whether the cyclization strategy influences the stability of the peptides we incubated 3, 8 and 33 in MDA‐MB‐231 cell lysate. […]
(§1) Fluorescence polarization assay […]
Isothermal Titration Calorimetry […]
Peptide stability was tested in whole cell lysate prepared from MDA-MB-231 cells using the freeze-thaw method. Peptides were dissolved in lysate (normalized to 5mg/ml protein using PBS) at 600 µM and incubated at 37°C. Samples were taken at different time points and mixed with an equal amount of MeOH containing 0.05 mg/ml ethylparaben as an i nternal standard. The samples were mixed and kept on ice for 15 minutes before centrifugation at 14000 rpm at 4 °C for 10 min. The supernatant was carefully removed and analyzed by HPLC. Peptide peaks were integrated and surface areas compared […]
Measurements were performed in duplicate.

Data set [2] concerns the target T1, RbAp48 (Homo sapiens, UniProt Q09028). The data set can be described thus: Competitive fluorescence polarization (FP) assay using complex of peptide 1 and RbAp48. The data set is classed as binding. More on the design: Full length RbAp48 was cloned; His tag followed by 3C cleavage site (N, cleaved yes); made in house; host or cells: Sf9 insect cells. Conditions: Table 1; competitive FP, tracer peptide 1 1 nM, RbAp48 15 nM, 20 mM Tris-HCl, 150 mM NaCl, 0.01% Tween-20, pH 7.5, 30 min room temperature; lower limit set by 15 nM protein; read-out: IC50. Summed up: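 Sf9-expressed full-length RbAp48 (tag cleaved), 15 nM, displaced from 1 nM fluorescent peptide tracer in 20 mM Tris-HCl pH 7.5, 150 mM NaCl, 0.01% Tween-20. Read by FP (ex 485/em 535 nm) after 30 min at room temperature.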

The target of data set [3] is T1, RbAp48. The data set can be described thus: Isothermal titration calorimetry (direct and competitive). Conditions: competitive ITC with weak ligand 40. In kind it is binding. Further details: Full length RbAp48 was cloned; His tag followed by 3C cleavage site (N, cleaved yes); made in house; host or cells: Sf9 insect cells. As to the method:
The weak ligand interferes with binding of the strong ligand allowing the use of higher concentrations and therefore stronger signal. The actual affinity and thermodynamic parameters can then be calculated from the measured values.[ ^20 , ^21 ] The long linear peptide 2, monocyclic peptide 8, and bicyclic peptide 33 were analysed using this method and the results are reported in Table 2 (See Figure 4 A and Supplemental Figure 13–16). […] An effect which could not clearly be observed by the FP assay as it's lower limits were reached.
Protein expression and purification
RbAp48 was expressed and purified by the Dortmund Protein Facility. Full length RbAp48 was cloned into a pOPIN vector ligating it to an N-terminal His tag followed by a 3C cleavage site. The protein was expressed from Sf9 cells for 48 h. Cells were harvested and lysed and the protein was purified by loading onto a HisTrap FF crude 5 ml column followed by on-column cleavage using Precission protease. The cleaved protein was then further purified using a HiLoad 26/60 Superdex 200 column.
as §1
Isothermal Titration Calorimetry
Isothermal titration calorimetry measurements w ere performed using a Microcal ITC-200 device. The buffer for all measurements consisted of 20 mM Tris, 150 mM NaCl, pH 7.5 and all measurements were performed at 25°C in duplicate except for 8. RbAp48 was dialyzed overnight using a 10 kDa MWCO Slide-A-lizer dialysis membrane and peptide samples were dissolved in the dialysis buffer. Direct measurements of 40 were perfomed by titrating the peptide ( 800 µM) into the cell containing RbAp48 (40 µM) using 2 µl injection after an initial injection of 0.5 µl. […]
by competitive ITC where the protein is premixed with a weak ligand ( 40).[1] Competitive measurements were performed by titrating 2, 8 or 33 (300 µM) into the cell containing RbAp48 (30 µM) and 40 (416 µM). Other conditions were the same as for the direct measurement described above.
Ki was calculated according using the following formula: […]

T1 sequence (Q09028 whole entry): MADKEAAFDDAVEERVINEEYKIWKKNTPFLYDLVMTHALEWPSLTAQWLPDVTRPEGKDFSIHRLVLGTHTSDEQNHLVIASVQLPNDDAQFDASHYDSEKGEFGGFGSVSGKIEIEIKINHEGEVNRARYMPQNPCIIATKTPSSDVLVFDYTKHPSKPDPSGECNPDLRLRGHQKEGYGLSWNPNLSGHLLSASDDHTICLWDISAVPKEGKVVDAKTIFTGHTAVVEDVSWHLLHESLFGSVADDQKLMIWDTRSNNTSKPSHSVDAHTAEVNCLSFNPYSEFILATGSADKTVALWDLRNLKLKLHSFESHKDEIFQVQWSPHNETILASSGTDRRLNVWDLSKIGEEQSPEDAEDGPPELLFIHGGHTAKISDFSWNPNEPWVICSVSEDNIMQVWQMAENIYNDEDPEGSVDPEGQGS

`CC(=O)N[C@H]1CSCc2cc3cc(c2)CSC[C@@H](C(=O)N[C@@H](C)C(N)=O)NC(=O)[C@@H]2CCCN2C(=O)[C@H](CCCCN)NC(=O)[C@H](Cc2ccc(O)cc2)NC(=O)[C@@H]2CCCN2C(=O)[C@H](CCCNC(=N)N)NC(=O)[C@H](CCCNC(=N)N)NC(=O)[C@H](C)NC(=O)[C@H](CSC3)NC(=O)[C@H](CCCNC(=N)N)NC(=O)[C@H](CCCCN)NC(=O)[C@H]([C@@H](C)O)NC1=O` [Peptide 33] (Ac-CTKRCARRPYKPCA-NH2; linker 1-5-13 via TBMB): the half-life at 600 µM in data set [1] (MDA-MB-231 whole cell lysate (freeze-thaw), 5 mg/ml protein in PBS, peptide 600 µM, read-out: t 1/2 (half-life)) was determined as 1.57 h. For the same molecule, the remaining at 1 h, 600 µM in data set [1] (T 60 min, MDA-MB-231 whole cell lysate 5 mg/ml protein, 600 µM, read-out: % left) came to 57.8%. For the same molecule, in data set [1] (T 120 min, MDA-MB-231 whole cell lysate 5 mg/ml protein, 600 µM, read-out: % left), the remaining at 2 h, 600 µM was determined as 41.4%. Moreover, the remaining at 4 h, 600 µM in data set [1] (T 240 min, MDA-MB-231 whole cell lysate 5 mg/ml protein, 600 µM, read-out: % left) was determined as 0%. Besides, the IC50 in data set [2] is 12.3 ± 2 nM. Also, the dissociation constant (Kd) in data set [3] amounted to 8.56 nM.
